Test results published in PubChem BioAssay AID1259408 (Genetic Toxicology Data Bank (GENE-TOX), 2018).
Calls of active or inactive are those of the source. How the calls were made is not given here.

Test system: GENE-TOX genotoxicity assays, various organisms and cells
Assay: GENE-TOX mutagenicity studies
Conditions: for call: Assay Type: In vivo carcinogenicity studies

Structure (SMILES): C1CN1c1nc(N2CC2)nc(N2CC2)n1
- mutagenic call (Species/Cell Type: Allium cepa, Assay Type: Chromosome aberrations, Assay Code: ALC+, Evaluation Type: Evaluation A (Pre-1980)): active; positive
- mutagenic call (Species/Cell Type: Arabidopsis species, Assay Type: Gene mutation, Assay Code: ARM-, Evaluation Type: Evaluation A (Pre-1980)): inactive; negative
- mutagenic call (Species/Cell Type: Drosophila melanogaster, Assay Type: Sex-linked recessive lethal gene mutation, Assay Code: SRL+, Evaluation Type: Evaluation A (Pre-1980)): active; positive
- mutagenic call (Species/Cell Type: Drosophila melanogaster, Sex: Male, Assay Type: Heritable translocation test, chromosome aberrations, Assay Code: DHT+, Evaluation Type: Evaluation A (Pre-1980)): active; positive
- mutagenic call (Species/Cell Type: F1 mouse, Sex: Male, Assay Type: Sperm morphology, Assay Code: SPF+, Evaluation Type: Evaluation A (Pre-1980)): active; positive
- mutagenic call (Species/Cell Type: Human lymphocytes, Assay Type: Sister-chromatid exchange (SCE) in vitro, Assay Code: SCL+, Evaluation Type: Evaluation B (Post-1980)): active; positive
- mutagenic call (Species/Cell Type: Human, Assay Type: Sister-chromatid exchange (SCE) in vitro, Assay Code: SC1+, Evaluation Type: Evaluation B (Post-1980)): active; positive
- mutagenic call (Species/Cell Type: Mammalian germ cells, Sex: Male, Assay Type: Chromosome aberrations in vivo, Assay Code: CY9+, Evaluation Type: Evaluation A (Pre-1980)): active; positive
- mutagenic call (Species/Cell Type: Mammalian oocytes or early embryo, Assay Type: Chromosome aberrations in vivo, Assay Code: CYO+, Evaluation Type: Evaluation A (Pre-1980)): active; positive
- mutagenic call (Species/Cell Type: Mammalian polychromatic erythrocytes, Assay Type: Micronucleus test, chromosome aberrations, Assay Code: MNT+, Evaluation Type: Evaluation A (Pre-1980)): active; positive
- mutagenic call (Species/Cell Type: Mouse germ cells, Sex: Male, Assay Type: Unscheduled DNA synthesis (UDS) in vivo, DNA effects, Assay Code: UDT+, Evaluation Type: Evaluation A (Pre-1980)): active; positive
- mutagenic call (Species/Cell Type: Mouse, Sex: Female, Assay Type: Spot test, gene mutation, Assay Code: MSTT, Evaluation Type: Evaluation A (Pre-1980)): no conclusion
- mutagenic call (Species/Cell Type: Mouse, Sex: Male, Assay Type: Heritable translocation test, chromosome aberrations, Assay Code: HTT+, Evaluation Type: Evaluation A (Pre-1980)): active; positive
- mutagenic call (Species/Cell Type: Mouse, Sex: Male, Assay Type: Specific locus test, gene mutation, Assay Code: SLT+, Evaluation Type: Evaluation A (Pre-1980)): active; positive
- mutagenic call (Species/Cell Type: Mouse, Sex: Male, Assay Type: Sperm morphology, Assay Code: SPI+, Evaluation Type: Evaluation A (Pre-1980)): active; positive
- mutagenic call (Species/Cell Type: Nonhuman bone marrow, Assay Type: Chromosome aberrations, in vivo, Assay Code: CY#+, Evaluation Type: Evaluation A (Pre-1980)): active; positive
- call (Species/Cell Type: Nonhuman, Assay Code: CCG+L, Evaluation Type: Evaluation A (Pre-1980)): active; positive
- mutagenic call (Species/Cell Type: Nonhuman, Assay Type: Sister-chromatid exchange (SCE) in vitro, Assay Code: SC2+D, Dose Response: With dose response, Evaluation Type: Evaluation B (Post-1980)): active; positive
- mutagenic call (Species/Cell Type: Nonhuman, Assay Type: Sister-chromatid exchange (SCE) in vivo, Assay Code: SC3+D, Dose Response: With dose response, Evaluation Type: Evaluation B (Post-1980)): active; positive
- mutagenic call (Species/Cell Type: Rabbit, Sex: Male, Assay Type: Sperm morphology, Assay Code: SPRT, Evaluation Type: Evaluation A (Pre-1980)): no conclusion
- mutagenic call (Species/Cell Type: Rodents, Sex: Male, Assay Type: Dominant lethal test, Assay Code: DLT+D, Dose Response: With dose response, Evaluation Type: Evaluation A (Pre-1980)): active; positive
- mutagenic call (Species/Cell Type: Saccharomyces cerevisiae, Assay Type: Forward and reverse gene mutation, mitotic recombination and gene conversion, host-mediated assay, Assay Code: HME+, Evaluation Type: Evaluation A (Pre-1980)): active; positive
- mutagenic call (Species/Cell Type: Saccharomyces cerevisiae, Assay Type: Forward gene mutation, Assay Code: YEF+, Evaluation Type: Evaluation A (Pre-1980)): active; positive
- mutagenic call (Species/Cell Type: Saccharomyces cerevisiae, Assay Type: Mitotic recombination or gene conversion, Assay Code: YEC+, Evaluation Type: Evaluation A (Pre-1980)): active; positive
- mutagenic call (Species/Cell Type: Saccharomyces cerevisiae, Assay Type: Mitotic recombination or gene conversion, Assay Code: YEH+, Evaluation Type: Evaluation A (Pre-1980)): active; positive
- mutagenic call (Species/Cell Type: Saccharomyces cerevisiae, Assay Type: Reverse gene mutation, Assay Code: YER+, Evaluation Type: Evaluation A (Pre-1980)): active; positive
- mutagenic call (Species/Cell Type: Vicia faba, Assay Type: Chromosome aberrations, Assay Code: VIC+, Evaluation Type: Evaluation A (Pre-1980)): active; positive

Structure (SMILES): c1ccc2nccnc2c1
- mutagenic call (Species/Cell Type: Mouse, Sex: Male, Assay Type: Sperm morphology, Assay Code: SPI-, Evaluation Type: Evaluation A (Pre-1980)): inactive; negative

Structure (SMILES): OCc1c2ccccc2c(CO)c2c1ccc1ccccc12
- mutagenic call (Species/Cell Type: Chinese hamster lung (V79) cells, Assay Type: Forward gene mutation at the HPRT or ouabain locus, Assay Code: V79-*, Activation: With metabolic activation, Evaluation Type: Evaluation A (Pre-1980)): inactive; negative
- call (Species/Cell Type: Nonhuman, Assay Code: CCGT, Evaluation Type: Evaluation A (Pre-1980)): no conclusion

Structure (SMILES): O=[N+]([O-])c1c2ccccc2c2ccc3cccc4ccc1c2c43
- mutagenic call (Species/Cell Type: Chinese hamster ovary (CHO) cells, Assay Type: Forward gene mutation at the HPRT locus, Assay Code: CHOT, Evaluation Type: Evaluation B (Post-1980)): no conclusion
- mutagenic call (Species/Cell Type: Salmonella typhimurium (one or more of the five standard strains: TA98, TA100, TA1535, TA1537, and TA1538), Assay Type: Histidine reverse gene mutation, Ames assay, Assay Code: SAL+*, Activation: With metabolic activation, Evaluation Type: Evaluation A (Pre-1980)): active; positive
